Data on two compounds can be found in US11691960B2, “2-[thiophen-2-yl)formamido]-N-(phenyl)-2-methylpropanamide derivatives and the use thereof as medicament” (Boehringer Ingelheim International GmbH, priority 2020, dated 2023).

One data set concerns human hepatocytes. The data set can be described thus: Assay D: metabolic stability in human hepatocytes. The format is in vitro ADME. As for the experimental part:
Assay D. Assessment of Metabolic Stability in Human Hepatocytes
The metabolic degradation of the test compound is assayed in a hepatocyte suspension. After recovery from cryopreservation, human hepatocytes are incubated in Dulbecco's modified eagle medium supplemented with 3.5 μg glucagon/500 mL, 2.5 mg insulin/500 mL and 3.75 mg/500 mL hydrocortisone) containing 5% or 50% human serum or in absence of serum.
Following a 30 min preincubation in a cell culture incubator (37° C., 10% CO2), 5 μl of test compound solution (80 μM; derived from a 2 mM DMSO stock solution by dilution 1:25 with medium) are added into 395 μl hepatocyte suspension, resulting in a final cell density of 1 Mio cells/mL, a final test compound concentration of 1 μM, and a final DMSO concentration of 0.05%.
The cells are incubated for six hours (incubator, orbital shaker) and samples (25 μl) are removed from the incubation after 0, 0.5, 1, 2, 4 and 6 hours. Samples are transferred into acetonitrile and pelleted by centrifugation (5 min). The supernatant is transferred to a new 96-deepwell plate, evaporated under nitrogen and resuspended prior to analysis of decline of parent compound by HPLC-MS/MS.
CLint is calculated as follows: CL_INTRINSIC=k/CD×1000/60 k: slope of the regression line for parent decline [h^−1], CD: cell density of vital cells [10e6 cells/mL],
The calculated in vitro hepatic intrinsic clearance is scaled up to the intrinsic in vivo hepatic Clearance and used to predict hepatic in vivo blood clearance (CL) by the use of a liver model (well stirred model): CL_INTRINSIC_INVIVO [ml/min/kg]=(CL_INTRINSIC [μL/min/10e6 cells]×hepatocellularity [10e6 cells/g liver]×liver factor [g/kg bodyweight])/1000 CL[ml/min/kg]=CL_INTRINSIC_INVIVO [ml/min/kg]×hepatic blood flow [ml/min/kg]/(CL_INTRINSIC_INVIVO[ml/min/kg]+hepatic blood flow [ml/min/kg])
Results are expressed as percentage of hepatic blood flow: QH[%]=CL[ml/min/kg]/hepatic blood flow [ml/min/kg])
Hepatocellularity, human: 120×10e6 cells/g liver
Liver factor, human: 25.7 g/kg bodyweight
Blood flow, human: 20.7 ml/(min×kg)

Data set [1] can be described thus: Assay F: tissue distribution in mouse after oral application. The format is in vivo. The text has this: (§1) In order to estimate the amount of administered drug to enter the brain, the brain to plasma ratio is used as surrogate parameter. As efflux transporters (e.g. P-gp) are located at the blood-brain barrier, compounds acting as substrates will be actively transported out of the brain. As these efflux transporters are not expressed in muscle tissue, the relative distribution ratio of compound between muscle and brain tissue can be used as indication for an efflux in vivo in rats or mice. In case there is no in vivo efflux detectable (in rats/mice) and in case there is no efflux in vitro (MDCK-MDR1 (P-gp)), a brain exposure in patients can be expected [see Table 7 for comparison of in vitro efflux data (MDCK-MDR1 assay) and in vivo efflux data (tissue distribution in rat/mouse after oral application)].
(§2) Assay F. Determination of Tissue Distribution in Rat/Mouse After Oral Application of Compounds
Male Han Wistar rats or C57BL/6NRj mice were orally dosed with 10 μmol/kg of compound to be investigated, suspended in 0.5% Natrosol/0.015% Tween80. Blood was collected in K3EDTA containing vials from the sublingual vein in short time Isoflurane anesthesia in rat or from the saphenous vein in conscious mice at […], 0.25, 0.5, 1, 2, 3, 4, 8 and 24 hours post administration. Subsequently, plasma was prepared by centrifugation for 5 min at 5000 rpm and stored at −20° C. […]

A further data set deals with human androgen receptor (Homo sapiens (Human), UniProt P10275). Nature of the data set: Assay B: human androgen receptor luciferase reporter assay (Indigo Biosciences). The format is cell-based. The following applies: for Selectivity Assay B/Assay A: ratio IC50 androgen receptor / IC50 IDO1. The text has this: Assay B. In Vitro Testing of Androgen Receptor Potency:
The human androgen receptor (AR) assay was run using Product #IB03001 from Indigo Biosciences. The cell line provided in this kit carries a reporter gene, induced upon AR stimulation. This reporter gene is cDNA encoding for beetle luciferase, a 62 kD protein originating from the North American firefly (Photinus pyralis). This luciferase catalyzes the mono-oxidation of D-luciferin yielding oxyluciferin, adenosine monophosphate, pyrophosphate, CO2, and photon emission. The luminescence intensity of the reaction is quantified using a luminometer.
To run the assay, the cells are thawed by adding pre-warmed cell recovery medium to each tube, then placed in a 37° C. water bath. 30000 viable cells in 200 μl are plated (collagen coated plates) and incubated at 37° C., ≥85% humidity, 5% CO2 for 24 hours. Media is replaced with compound screening medium. Cells are then challenged with 125 pM (EC80) 6a-Fl Testosterone and compounds are applied in half logarithmic dilutions from 10 μM to 10 nM. Assay plates are then incubated at 37° C., ≥85% humidity, 5% CO2 for 22-24 hours. Media is replaced with luciferase detection reagent and allowed 5 minutes to equilibrate prior to luminescence quantification.
Data Analysis consisted of calculating percentage of control between 100% (Negative control:6a-Fl Testosterone) and 0 (positive control: no 6a-FL Testosterone). Fitting of normalized values was made 4-Parameter sigmoidal binding curve (Log[conc]) vs. signal.
(A reporter such as luciferase makes a cellular process visible.)

Data set [2] is described as follows: Assay F: tissue distribution in rat after oral application. The format is in vivo.
From the text: as §1, §2
Male Han Wistar rats or C57BL/6NRj mice were orally dosed with 10 μmol/kg of compound to be investigated, suspended in 0.5% Natrosol/0.015% Tween80. Blood was collected in K3EDTA containing vials from the sublingual vein in short time Isoflurane anesthesia in rat or from the saphenous vein in conscious mice at […], 0.25, 0.5, 1, 2, 3, 4, 8 and 24 hours post administration. Subsequently, plasma was prepared by centrifugation for 5 min at 5000 rpm and stored at −20° C.
Tissues and CSF were sampled in anaesthetized animals. CSF was collected from the cisterna magna. Following exsanguination a femoral muscle sample was collected. Cranium and the dura matter were removed and the complete brain was collected. Before transfer of the muscle and brain sample to pre-weight homogenization devices (Precellys®) the tissues were rinsed with saline and blotted dry.
For homogenization, four parts (v/w) homogenization buffer (37.5% acetonitrile, 37.5% methanol, 25% water) were added. Tissues were homogenized with a Precellys® Evolution homogenizer. Five μL of the homogenate were added to 70 μL of a 1 to 1 (v/v) mixture of acetonitrile and methanol and frozen for at least 10 min at −18° C.
For final sample preparation, the sample was centrifuged at 4000 rpm for 1 min, and an aliquot of the resulting supernatant (30 μL) was mixed with 170 μL formic acid prior to injection to LC-MS. Calibration curves were prepared accordingly in rat and mouse plasma, respectively. All animal care and experimental procedures at Boehringer Ingelheim were conducted in compliance with the German and European Animal Welfare Act (EU Directive 2010/63/EU) and were approved by the Regierungspräsidium Tübingen as the responsible local German authority (reference number 35/9185.81-8/14-009-G).

The mark [3] stands for this setting: oral 10 μmol/kg, muscle/brain tissue distribution.

human androgen receptor, sequence (P10275 whole entry): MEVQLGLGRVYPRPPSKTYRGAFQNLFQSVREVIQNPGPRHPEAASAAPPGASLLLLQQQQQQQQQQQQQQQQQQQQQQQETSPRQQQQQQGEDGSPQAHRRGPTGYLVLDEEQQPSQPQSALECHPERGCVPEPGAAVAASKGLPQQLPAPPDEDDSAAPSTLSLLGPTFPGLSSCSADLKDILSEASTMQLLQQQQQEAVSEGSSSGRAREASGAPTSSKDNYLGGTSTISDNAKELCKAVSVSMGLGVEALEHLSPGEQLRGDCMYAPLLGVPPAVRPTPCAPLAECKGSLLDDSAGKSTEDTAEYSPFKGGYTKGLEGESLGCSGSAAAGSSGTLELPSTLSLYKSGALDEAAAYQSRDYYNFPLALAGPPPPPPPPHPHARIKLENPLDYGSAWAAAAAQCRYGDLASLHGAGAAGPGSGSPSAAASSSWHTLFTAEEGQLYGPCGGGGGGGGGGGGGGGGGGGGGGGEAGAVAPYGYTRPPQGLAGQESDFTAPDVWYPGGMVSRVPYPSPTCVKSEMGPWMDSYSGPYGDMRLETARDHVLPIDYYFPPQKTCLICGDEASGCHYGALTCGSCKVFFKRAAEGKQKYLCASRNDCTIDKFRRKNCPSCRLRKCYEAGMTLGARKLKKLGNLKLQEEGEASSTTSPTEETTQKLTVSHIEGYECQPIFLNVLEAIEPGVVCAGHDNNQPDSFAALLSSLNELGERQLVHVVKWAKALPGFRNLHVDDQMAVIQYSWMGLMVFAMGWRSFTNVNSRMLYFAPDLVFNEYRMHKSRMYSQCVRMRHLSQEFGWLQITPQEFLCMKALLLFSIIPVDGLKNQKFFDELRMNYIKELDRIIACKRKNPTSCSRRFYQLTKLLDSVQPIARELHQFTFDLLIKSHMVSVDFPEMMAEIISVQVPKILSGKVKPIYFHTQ

Turning to `CC(C)(NC(=O)c1ccc(Cl)s1)C(=O)Nc1ccc(Cl)c(F)c1` [Example 3, 2-[(5-chlorothiophen-2-yl)formamido]-N-(4-chloro-3-fluorophenyl)-2-methylpropanamide], in the data set on human hepatocytes, the “metabolic stability in human hepatocytes (in words)” value is listed as “metabolically stable”. In addition, in data set [1] (after oral application), the “in vivo efflux (in words)” value is reported as “neither in vitro nor in vivo efflux”. Moreover, the “in vivo efflux (Assay F)” value in data set [1] (setting [3]) was 0.60 (mouse). Moreover, on human androgen receptor, the “Selectivity Assay B/Assay A” value worked out at 33.
By IC50 is commonly meant the concentration at which inhibition is half-maximal. `CC(C)(NC(=O)c1ccc(Cl)s1)C(=O)Nc1ccc(Br)cc1` [Example 4, 2-[(5-chlorothiophen-2-yl)formamido]-N-(4-bromophenyl)-2-methylpropanamide]: in the data set on human hepatocytes, the “metabolic stability in human hepatocytes (in words)” value was “metabolically stable”. Moreover, in data set [2] (after oral application), the “in vivo efflux (in words)” value is reported as “neither in vitro nor in vivo efflux”. In data set [2] (setting [3]), the “in vivo efflux (Assay F)” value is given as 0.50 (rat). Moreover, the IC50 against human androgen receptor (challenge with 125 pM (EC80) 6a-Fl Testosterone, mean +− standard deviation) is above 10 µM. The “Selectivity Assay B/Assay A” value on human androgen receptor is given as above 42.
